As a reminder, the Kd is the constant that tells how readily two partners part at equilibrium. Lower therefore signals higher affinity.

From PMC10931682, “A Combination of Library Screening and Rational Mutagenesis Expands the Available Color Palette of the Smallest Fluorogen-Activating Protein Tag nanoFAST” (International Journal of Molecular Sciences, 2024) come the findings set out here.

Structures are written as SMILES. Changes are numbered by the printed parent chain.

Experiment [1] deals with T1, nanoFAST (Halorhodospira halophila, UniProt P16113, Q41K/E46Q/C69G/S72T/A84S/Y94W/T95A/F96I/D97P/Y98T/Q99S/M100R/T101G/M109L/S117R).
T1 construct: gene pyp; FAST (engineered PYP) lacking the first 27 residues, 98 aa; C-terminal tag of three glycines and six histidines; E. coli BL21(DE3), Ni purification
T1 sequence (P16113 28-125 Q41K/E46Q/C69G/S72T/A84S/Y94W/T95A/F96I/D97P/Y98T/Q99S/M100R/T101G/M109L/S117R): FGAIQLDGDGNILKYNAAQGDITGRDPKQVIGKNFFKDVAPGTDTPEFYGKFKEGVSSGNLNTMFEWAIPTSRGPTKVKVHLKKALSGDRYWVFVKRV
As to the kind of experiment: spectrofluorometric titration, plate reader. The experiment is classed as binding. The note with it: PBS pH 7.4, 25 °C, 0.10 µM protein; non-covalent fluorogen. From the text:
spectrofluorometric titration, plate reader on nanoFAST

Experiment [2] addresses T2, nanoFAST (Halorhodospira halophila, UniProt P16113, C69G/Y94W/T95M/F96I/D97P/Y98T/Q99S/M100R/T101G).
T2 construct: gene pyp; FAST (engineered PYP) lacking the first 27 residues, 98 aa; C-terminal tag of three glycines and six histidines; E. coli BL21(DE3), Ni purification
T2 sequence (P16113 28-125 C69G/Y94W/T95M/F96I/D97P/Y98T/Q99S/M100R/T101G): T1 sequence (P16113 28-125 Q41K/E46Q/C69G/S72T/A84S/Y94W/T95A/F96I/D97P/Y98T/Q99S/M100R/T101G/M109L/S117R) with K14Q, Q19E, T45S, S57A, A68M, L82M, R90S
The experiment in a line: fluorescence enhancement screen, plate reader. The class given is binding. The note with it: PBS pH 7.4, 10 µM fluorogen, 1 µM protein.

`Cc1cc(/C=C2\SC(=S)NC2=O)c(C)cc1O` [HBR-2,5-DM] gave a Kd in experiment [1] of 0.5 ± 0.16 µM.

`COc1cc(/C=C2\SC(=S)NC2=O)cc(OC)c1O` [HBR-DOM] returned a Kd in experiment [1] of 1.69 ± 0.32 µM.

As to `COc1cc(/C=C2\SC(=S)NC2=O)c(OC)cc1O` [HBR-DOM2, 2,5-dimethoxy-4-hydroxy-arylidene-rhodanine], in experiment [2], the “fluorescence enhancement screen, plate reader” value is reported as “significant decrease in fluorescence enhancement with the previously proposed fluorogen of the nanoFAST protein”. The same compound yielded a Kd in experiment [1] of 0.13 ± 0.01 µM.
